Source: patent publication US20230123334A1, “AMINO LIPID COMPOUND, PREPARATION METHOD THEREFOR, AND APPLICATION THEREOF” (SHENZHEN SHENXIN BIOTECHNOLOGY CO., LTD., priority 2020, published 2023)

tested on: HEK293 cells; experiment: Preliminary screening as DNA vectors, GFP transfection of HEK293 cells; type: cell-based; settings: amino lipid/DOPE liposome with 75 ng plasmid DNA (psin-EGFP-IRES-Puro); number of GFP-expressing cells divided by total nuclei (Hoechst)
How it was run: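 Lipid + DOPE liposomes (NaOAc, pH 5.6) complexed w/ 75 ng psin-EGFP-IRES-Puro, 30 min RT; added to 3-5×10^4 HEK293/well, 37° C. Hoechst 0.2 μg/mL at 20-24 h, imaged after further 20-24 h. Efficiency = GFP+ cells / total nuclei.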

| SMILES | Absolute DNA transfection efficiency in HEK293 cells |
| --- | --- |
| CCCCCCCCCNc1nc(NCCN(C)C)nc(SCCCCCCCC)n1 [S8N9 D1] | 33.6% |
| CCCCCCCCCNc1nc(NCCN2CCOCC2)nc(SCCCCCCCC)n1 [S8N9 D2] | 10.7% |
| CCCCCCCCCNc1nc(NCCN2CCCC2)nc(SCCCCCCCC)n1 [S8N9 D3] | 32.7% |
| CCCCCCCCCNc1nc(NCCN2CCCCC2)nc(SCCCCCCCC)n1 [S8N9 D4] | 15.5% |
| CCCCCCCCCNc1nc(NCCN2CCN(C)CC2)nc(SCCCCCCCC)n1 [S8N9 D5] | 35.9% |
| CCCCCCCCCNc1nc(NCCCN(C)C)nc(SCCCCCCCC)n1 [S8N9 D6] | 33.3% |
| CCCCCCCCCNc1nc(NCCN(CC)CC)nc(SCCCCCCCC)n1 [S8N9 D7] | 26.0% |
| CCCCCCCCCNc1nc(NCCCN2CCOCC2)nc(SCCCCCCCC)n1 [S8N9 D8] | 14.8% |
| CCCCCCCCCNc1nc(NCCCN2CCN(C)CC2)nc(SCCCCCCCC)n1 [S8N9 D9] | 32.1% |
| CCCCCCCCCNc1nc(NCC2CCN(C)CC2)nc(SCCCCCCCC)n1 [S8N9 D10] | 36.3% |
| CCCCCCCCCCCNc1nc(NCCN(C)C)nc(SCCCCCCCC)n1 [S8N11 D1] | 42.2% |
| CCCCCCCCCCCNc1nc(NCCN2CCOCC2)nc(SCCCCCCCC)n1 [S8N11 D2] | 25.4% |
| CCCCCCCCCCCNc1nc(NCCN2CCCC2)nc(SCCCCCCCC)n1 [S8N11 D3] | 52.0% |
| CCCCCCCCCCCNc1nc(NCCN2CCCCC2)nc(SCCCCCCCC)n1 [S8N11 D4] | 14.3% |
| CCCCCCCCCCCNc1nc(NCCN2CCN(C)CC2)nc(SCCCCCCCC)n1 [S8N11 D5] | 52.7% |
| CCCCCCCCCCCNc1nc(NCCCN(C)C)nc(SCCCCCCCC)n1 [S8N11 D6] | 99.4% |
| CCCCCCCCCCCNc1nc(NCCN(CC)CC)nc(SCCCCCCCC)n1 [S8N11 D7] | 24.6% |
| CCCCCCCCCCCNc1nc(NCCCN2CCOCC2)nc(SCCCCCCCC)n1 [S8N11 D8] | 13.7% |
| CCCCCCCCCCCNc1nc(NCCCN2CCN(C)CC2)nc(SCCCCCCCC)n1 [S8N11 D9] | 63.6% |
| CCCCCCCCCCCNc1nc(NCC2CCN(C)CC2)nc(SCCCCCCCC)n1 [S8N11 D10] | 46.3% |
| CCCCCCCCCCCCNc1nc(NCCN(C)C)nc(SCCCCCCCC)n1 [S8N12 D1] | 22.1% |
| CCCCCCCCCCCCNc1nc(NCCN2CCOCC2)nc(SCCCCCCCC)n1 [S8N12 D2] | 38.1% |
| CCCCCCCCCCCCNc1nc(NCCN2CCCC2)nc(SCCCCCCCC)n1 [S8N12 D3] | 17.8% |

| SMILES | Absolute DNA transfection efficiency in HEK293 cells |
| --- | --- |
| CCCCCCCCCCCCNc1nc(NCCN2CCCCC2)nc(SCCCCCCCC)n1 [S8N12 D4] | 7.6% |
| CCCCCCCCCCCCNc1nc(NCCN2CCN(C)CC2)nc(SCCCCCCCC)n1 [S8N12 D5] | 41.7% |
| CCCCCCCCCCCCNc1nc(NCCCN(C)C)nc(SCCCCCCCC)n1 [S8N12 D6] | 78.3% |
| CCCCCCCCCCCCNc1nc(NCCN(CC)CC)nc(SCCCCCCCC)n1 [S8N12 D7] | 9.5% |
| CCCCCCCCCCCCNc1nc(NCCCN2CCOCC2)nc(SCCCCCCCC)n1 [S8N12 D8] | 16.1% |
| CCCCCCCCCCCCNc1nc(NCCCN2CCN(C)CC2)nc(SCCCCCCCC)n1 [S8N12 D9] | 48.3% |
| CCCCCCCCCCCCNc1nc(NCC2CCN(C)CC2)nc(SCCCCCCCC)n1 [S8N12 D10] | 44.5% |
| CCCCCCCCCCCCCNc1nc(NCCN(C)C)nc(SCCCCCCCC)n1 [S8N13 D1] | 18.3% |
| CCCCCCCCCCCCCNc1nc(NCCN2CCOCC2)nc(SCCCCCCCC)n1 [S8N13 D2] | 19.7% |
| CCCCCCCCCCCCCNc1nc(NCCN2CCCC2)nc(SCCCCCCCC)n1 [S8N13 D3] | 30.5% |
| CCCCCCCCCCCCCNc1nc(NCCN2CCCCC2)nc(SCCCCCCCC)n1 [S8N13 D4] | 3.8% |
| CCCCCCCCCCCCCNc1nc(NCCN2CCN(C)CC2)nc(SCCCCCCCC)n1 [S8N13 D5] | 28.3% |
| CCCCCCCCCCCCCNc1nc(NCCCN(C)C)nc(SCCCCCCCC)n1 [S8N13 D6] | 55.1% |
| CCCCCCCCCCCCCNc1nc(NCCN(CC)CC)nc(SCCCCCCCC)n1 [S8N13 D7] | 8.9% |
| CCCCCCCCCCCCCNc1nc(NCCCN2CCOCC2)nc(SCCCCCCCC)n1 [S8N13 D8] | 13.3% |
| CCCCCCCCCCCCCNc1nc(NCCCN2CCN(C)CC2)nc(SCCCCCCCC)n1 [S8N13 D9] | 27.9% |
| CCCCCCCCCCCCCNc1nc(NCC2CCN(C)CC2)nc(SCCCCCCCC)n1 [S8N13 D10] | 18.7% |
| CCCCCCCCCCCCCCCNc1nc(NCCN(C)C)nc(SCCCCCCCC)n1 [S8N15 D1] | 8.0% |
| CCCCCCCCCCCCCCCNc1nc(NCCN2CCOCC2)nc(SCCCCCCCC)n1 [S8N15 D2] | 4.9% |
| CCCCCCCCCCCCCCCNc1nc(NCCN2CCCC2)nc(SCCCCCCCC)n1 [S8N15 D3] | 9.9% |
| CCCCCCCCCCCCCCCNc1nc(NCCN2CCCCC2)nc(SCCCCCCCC)n1 [S8N15 D4] | 0.9% |
| CCCCCCCCCCCCCCCNc1nc(NCCN2CCN(C)CC2)nc(SCCCCCCCC)n1 [S8N15 D5] | 10.4% |
| CCCCCCCCCCCCCCCNc1nc(NCCCN(C)C)nc(SCCCCCCCC)n1 [S8N15 D6] | 23.7% |

| SMILES | Absolute DNA transfection efficiency in HEK293 cells |
| --- | --- |
| CCCCCCCCCCCCCCCNc1nc(NCCN(CC)CC)nc(SCCCCCCCC)n1 [S8N15 D7] | 2.2% |
| CCCCCCCCCCCCCCCNc1nc(NCCCN2CCOCC2)nc(SCCCCCCCC)n1 [S8N15 D8] | 7.7% |
| CCCCCCCCCCCCCCCNc1nc(NCCCN2CCN(C)CC2)nc(SCCCCCCCC)n1 [S8N15 D9] | 12.4% |
| CCCCCCCCCCCCCCCNc1nc(NCC2CCN(C)CC2)nc(SCCCCCCCC)n1 [S8N15 D10] | 22.6% |
| CCCCCCCCCCCCCCCCNc1nc(NCCN(C)C)nc(SCCCCCCCC)n1 [S8N16 D1] | 7.1% |
| CCCCCCCCCCCCCCCCNc1nc(NCCN2CCOCC2)nc(SCCCCCCCC)n1 [S8N16 D2] | 2.9% |
| CCCCCCCCCCCCCCCCNc1nc(NCCN2CCCC2)nc(SCCCCCCCC)n1 [S8N16 D3] | 3.3% |
| CCCCCCCCCCCCCCCCNc1nc(NCCN2CCCCC2)nc(SCCCCCCCC)n1 [S8N16 D4] | 1.0% |
| CCCCCCCCCCCCCCCCNc1nc(NCCN2CCN(C)CC2)nc(SCCCCCCCC)n1 [S8N16 D5] | 14.3% |
| CCCCCCCCCCCCCCCCNc1nc(NCCCN(C)C)nc(SCCCCCCCC)n1 [S8N16 D6] | 3.7% |
| CCCCCCCCCCCCCCCCNc1nc(NCCN(CC)CC)nc(SCCCCCCCC)n1 [S8N16 D7] | 5.2% |
| CCCCCCCCCCCCCCCCNc1nc(NCCCN2CCOCC2)nc(SCCCCCCCC)n1 [S8N16 D8] | 8.2% |
| CCCCCCCCCCCCCCCCNc1nc(NCCCN2CCN(C)CC2)nc(SCCCCCCCC)n1 [S8N16 D9] | 9.7% |
| CCCCCCCCCCCCCCCCNc1nc(NCC2CCN(C)CC2)nc(SCCCCCCCC)n1 [S8N16 D10] | 13.4% |
| CCCCCCCCCCCCCCCCCCNc1nc(NCCN(C)C)nc(SCCCCCCCC)n1 [S8N18 D1] | 4.8% |
| CCCCCCCCCCCCCCCCCCNc1nc(NCCN2CCOCC2)nc(SCCCCCCCC)n1 [S8N18 D2] | 2.6% |
| CCCCCCCCCCCCCCCCCCNc1nc(NCCN2CCCC2)nc(SCCCCCCCC)n1 [S8N18 D3] | 6.7% |
| CCCCCCCCCCCCCCCCCCNc1nc(NCCN2CCCCC2)nc(SCCCCCCCC)n1 [S8N18 D4] | 0.9% |
| CCCCCCCCCCCCCCCCCCNc1nc(NCCN2CCN(C)CC2)nc(SCCCCCCCC)n1 [S8N18 D5] | 8.6% |
| CCCCCCCCCCCCCCCCCCNc1nc(NCCCN(C)C)nc(SCCCCCCCC)n1 [S8N18 D6] | 20.6% |
| CCCCCCCCCCCCCCCCCCNc1nc(NCCN(CC)CC)nc(SCCCCCCCC)n1 [S8N18 D7] | 4.1% |
